Assay results reported in patent publication US20140187548A1, “6 SUBSTITUTED IMIDAZOPYRAZINES FOR USE AS MPS-1 AND TKK INHIBITORS IN THE TREATMENT OF HYPERPROLIFERATIVE DISORDERS” (BAYER INTELLECTUAL PROPERTY GMBH, priority 2010, published 2014).

biological target: T1, human kinase Mps-1 (Homo sapiens, UniProt P33981); assay: Mps-1 kinase assay (TR-FRET); format: biochemical; settings: N-terminally GST-tagged human full length recombinant Mps-1; 10 μM ATP; 1 μM peptide substrate; 15 min pre-incubation; 60 min at 22° C.
T1 construct: N-terminally GST-tagged human full length recombinant Mps-1 kinase; GST (N); purchased Invitrogen, Karslruhe, Germany PV4071
T1 sequence (P33981 1-857): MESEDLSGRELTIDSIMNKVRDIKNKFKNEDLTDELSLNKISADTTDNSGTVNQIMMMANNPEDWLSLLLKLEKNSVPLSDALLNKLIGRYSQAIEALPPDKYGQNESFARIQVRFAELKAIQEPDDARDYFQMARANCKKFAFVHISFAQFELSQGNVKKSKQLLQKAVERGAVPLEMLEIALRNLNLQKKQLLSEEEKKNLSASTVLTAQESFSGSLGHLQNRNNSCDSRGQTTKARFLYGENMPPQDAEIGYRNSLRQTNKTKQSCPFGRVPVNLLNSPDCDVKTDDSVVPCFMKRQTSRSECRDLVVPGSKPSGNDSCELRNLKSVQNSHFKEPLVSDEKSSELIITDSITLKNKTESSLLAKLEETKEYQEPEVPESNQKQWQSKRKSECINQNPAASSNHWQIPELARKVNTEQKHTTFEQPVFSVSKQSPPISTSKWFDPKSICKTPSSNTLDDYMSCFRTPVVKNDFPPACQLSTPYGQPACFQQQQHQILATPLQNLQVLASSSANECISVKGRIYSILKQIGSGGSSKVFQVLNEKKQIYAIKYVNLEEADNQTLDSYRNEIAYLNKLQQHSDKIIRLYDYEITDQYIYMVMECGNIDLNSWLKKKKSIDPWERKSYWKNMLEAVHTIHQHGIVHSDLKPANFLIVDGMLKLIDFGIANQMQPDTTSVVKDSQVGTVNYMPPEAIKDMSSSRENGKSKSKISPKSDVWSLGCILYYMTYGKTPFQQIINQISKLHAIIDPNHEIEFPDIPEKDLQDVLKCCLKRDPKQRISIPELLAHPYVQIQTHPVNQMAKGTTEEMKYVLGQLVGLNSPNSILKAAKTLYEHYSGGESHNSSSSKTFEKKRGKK
Method in brief: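 N-terminally GST-tagged full-length recombinant human Mps-1, about 1 nM final, phosphorylates a biotinylated peptide. Product detected by TR-FRET from Eu-anti-phospho-Ser/Thr antibody to streptavidin-XLent after 1 h at 22° C.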

| SMILES | IC50 |
| --- | --- |
| Cc1cc(-c2cnc3c(NCC(C)(C)O)nc(-c4ccc(F)cc4)cn23)ccc1C(=O)NC1CC1 [Example 1-136, N-cyclopropyl-4-{6-(4-fluorophenyl)-8-[(2-hydroxy-2-methylpropyl)amino]imidazo[1,2-a]pyrazin-3-yl}-2-methylbenzamide] | 7.9 nM |
| CC(C)CNc1nc(-c2ccc(N(C)C)cc2)cn2c(-c3ccc(C(=O)NC4CC4)c(F)c3)cnc12 [Example 1-110, N-cyclopropyl-4-{6-[4-(dimethylamino)phenyl]-8-[(2-methylpropyl)amino]imidazo[1,2-a]pyrazin-3-yl}-2-fluoro-benzamide] | 12.6 nM |
| CC(C)CNc1nc(-c2ccc(OC(F)(F)F)cc2)cn2c(-c3ccc(C(=O)NC4CC4)cc3)cnc12 [Example 1-52, N-cyclopropyl-4-{8-[(2-methylpropyl)amino]-6-[4-(trifluoromethoxy)phenyl]imidazo[1,2-a]pyrazin-3-yl}benzamide] | 31.4 nM |
| O=C(NC1CC1)c1ccc(-c2cnc3c(NCC4CCCO4)nc(-c4ccccc4CO)cn23)cc1Cl (stereo not shown) [Example 1-106, 2-chloro-N-cyclopropyl-4-{6-[2-(hydroxymethyl)phenyl]-8-[(tetrahydro-furan-2-ylmethyl)amino]imidazo[1,2-a]pyrazin-3-yl}benzamide] | 56.2 nM |
| CC(C)CNc1nc(-c2cccc([N+](=O)[O-])c2)cn2c(-c3ccc(C(=O)NC4CC4)cc3)cnc12 [Example 1-2, N-cyclopropyl-4-{8-[(2-methylpropyl)amino]-6-(3-nitrophenyl)imidazo [1,2-a]pyrazin-3-yl} benzamide] | 5.5 nM |
| O=C(NC1CC1)c1ccc(-c2cnc3c(NCCC(F)(F)F)nc(-c4ccc(F)cc4)cn23)cc1F [Example 1-112, N-cyclopropyl-2-fluoro-4-{6-(4-fluorophenyl)-8-[(3,3,3-trifluoropropyl)amino]imidazo[1,2-a]pyrazin-3-yl}benzamide] | 2.6 nM |
| CN(C)c1ccc(-c2cn3c(-c4ccc(C(=O)NC5CC5)c(Cl)c4)cnc3c(NCCC(F)(F)F)n2)cc1 [Example 1-96, 2-chloro-N-cyclopropyl-4-{6-[4-(dimethylamino)phenyl]-8-[(3,3,3-trifluoropropyl)amino]imidazo[1,2-a]pyrazin-3-yl}benzamide] | 22.6 nM |
| CN(C)c1ccc(-c2cn3c(-c4ccc(C(=O)NC5CC5)c(F)c4)cnc3c(NCC3CCCO3)n2)cc1 (stereo not shown) [Example 1-117, N-cyclopropyl-4-{6-[4-(dimethylamino)phenyl]-8-[(tetrahydrofuran-2-ylmethyl)amino]imidazo [1,2-a]pyrazin-3-yl}-2-fluorobenzamide] | 28.8 nM |
| Cc1ccc(-c2cn3c(-c4ccc(C(=O)NC5CC5)cc4)cnc3c(NCC(C)C)n2)cc1Cl [Example 1-80, 4-{6-(3-chloro-4-methyl-phenyl)-8-[(2-methylpropyl)amino]imidazo [1,2-a]pyrazin-3-yl}-N-cyclopropylbenzamide] | 20.7 nM |
| CC(C)CNc1nc(-c2cccc(O)c2)cn2c(-c3ccc(C(=O)NC4CC4)cc3)cnc12 [Example 1-66, N-cyclopropyl-4-{6-(3-hydroxyphenyl)-8-[(2-methylpropyl)amino]imidazo[1,2-a]pyrazin-3-yl}benzamide] | 2.2 nM |
| CC(C)CNc1nc(-c2ccc(Cl)c(C(=O)NC3CC3)c2)cn2c(-c3ccc(C(=O)NC4CC4)cc3)cnc12 [Example 1-84, 2-chloro-N-cyclopropyl-5-{3-[4-(cyclopropyl-carbamoyl)phenyl]-8-[(2-methylpropyl)amino]imidazo[1,2-a]pyrazin-6-yl}benzamide] | 4.5 nM |
| CC(C)CNc1nc(-c2ccccc2CO)cn2c(-c3ccc(C(=O)NC4CC4)cc3)cnc12 [Example 1-77, N-cyclopropyl-4-{6-[2-(hydroxymethyl)phenyl]-8-[(2-methylpropyl)amino]imidazo[1,2-a]pyrazin-3-yl}benzamide] | 1.2 nM |
| CC(C)CNc1nc(-c2ccc(C(=O)Nc3ccccc3)cc2)cn2c(-c3ccc(C(=O)NC4CC4)cc3)cnc12 [Example 1-53, 4-{3-[4-(cyclopropyl-carbamoyl)phenyl]-8-[(2-methylpropyl)amino]imidazo[1,2-a]pyrazin-6-yl}-N-phenylbenzamide] | 2.1 nM |
| CC(C)CNc1nc(-c2ccc(C(C)C)cc2)cn2c(-c3ccc(C(=O)NC4CC4)cc3)cnc12 [Example 1-59, N-cyclopropyl-4-{8-[(2-methylpropyl)amino]-6-[4-(propan-2-yl)phenyl]imidazo[1,2-a]pyrazin-3-yl}benzamide] | 55.7 nM |
| CC(C)CNc1nc(-c2ccc(C#N)cc2)cn2c(-c3ccc(C(=O)NC4CC4)cc3)cnc12 [Example 1-73, 4-{6-(4-cyanophenyl)-8-[(2-methylpropyl)amino]imidazo[1,2-a]pyrazin-3-yl}-N-cyclo-propylbenzamide] | 2.1 nM |
| CC(C)(O)CNc1nc(-c2cc(F)c(F)c(F)c2)cn2c(-c3ccc(C(=O)NC4CC4)cc3)cnc12 [Example 1-134, N-cyclopropyl-4-{8-[(2-hydroxy-2-methyl-propyl)amino]-6-(3,4,5-trifluorophenyl)imidazo[1,2-a]pyrazin-3-yl} benzamide] | 31.5 nM |

Other lines, results leading:

| IC50 | SMILES |
| --- | --- |
| 19.4 nM | O=C(NC1CC1)c1ccc(-c2cnc3c(NCCc4cccs4)nc(-c4ccccc4)cn23)cc1 [Example 2-39, N-cyclopropyl-4-(6-phenyl-8-{[2-(thiophen-2-yl)ethyl]amino}imidazo[1,2-a]pyrazin-3-yl)benzamide] |
| 3.2 nM | NCCCCCNc1nc(-c2ccccc2)cn2c(-c3ccc(C(=O)NC4CC4)cc3)cnc12 [Example 2-79, 4-{8-[(5-Aminopentyl)amino]-6-phenylimidazo[1,2-a]pyrazin-3-yl}-N-cyclopropylbenzamide] |
| 31.8 nM | CC(C)CNc1nc(-c2ccc(C3CC3)cc2)cn2c(-c3ccc(C(=O)NC4CC4)cc3)cnc12 [Example 7-1, N-cyclopropyl-4-[6-(4-cyclopropylphenyl)-8-(isobutylamino)imidazo[1,2-a]pyrazin-3-yl]benzamide] |
| 5.6 nM | Cn1ccc(CNc2nc(-c3ccccc3)cn3c(-c4ccc(C(=O)NC5CC5)cc4)cnc23)n1 [Example 2-53, N-cyclopropyl-4-(8-{[(1-methyl-1H-pyrazol-3-yl)methyl]amino}-6-phenylimidazo [1,2-a]pyrazin-3-yl)benzamide] |
| 6.2 nM | O=C(NC1CC1)c1ccc(-c2cnc3c(NCC4CCCCC4)nc(-c4ccccc4)cn23)cc1 [Example 2-66, 4-{8-[(Cyclohexylmethyl)amino]-6-phenylimidazo[1,2-a]pyrazin-3-yl}-N-cyclopropylbenzamide] |
| 1 nM | CC(C)CNc1nc(-c2ccc(CCO)cc2)cn2c(-c3ccc(C(=O)NC4CC4)cc3)cnc12 [Example 6-1, N-cyclopropyl-4-{6-[4-(2-hydroxyethyl)phenyl]-8-(isobutylamino)imidazo[1,2-a]pyrazin-3-yl}benzamide] |
| 1.7 nM | COCCNc1nc(-c2ccccc2)cn2c(-c3ccc(C(=O)NC4CC4)cc3)cnc12 [Example 2-12, N-cyclopropyl-4-{8-[(2-methoxyethyl)amino]-6-phenylimidazo[1,2-a]pyrazin-3-yl}benzamide] |
| 3.3 nM | Cc1cc(-c2cnc3c(NCC4CCOCC4)nc(-c4ccc(F)cc4)cn23)ccc1C(=O)NC1CC1 [Example 10-14, N-cyclopropyl-4-{6-(4-fluorophenyl)-8-[(tetra-hydro-2H-pyran-4-ylmethyl)amino]imidazo [1,2-a]pyrazin-3-yl}-2-methylbenzamide] |
| 11.2 nM | O=C(NC1CC1)c1ccc(-c2cnc3c(NCCCCN4CCCC4)nc(-c4ccccc4)cn23)cc1 [Example 2-45, N-cyclopropyl-4-(6-phenyl-8-{[4-(pyrrolidin-1-yl)butyl]amino}imidazo[1,2-a]pyrazin-3-yl) benzamide] |
| 27.4 nM | O=C(NC1CC1)c1ccc(-c2cnc3c(NCCN4CCCC4)nc(-c4ccccc4)cn23)cc1 [Example 2-25, N-cyclopropyl-4-(6-phenyl-8-{[2-(pyrrolidin-1-yl)ethyl]amino}imidazo[1,2-a]pyrazin-3-yl)benzamide] |
| 2.2 nM | O=C(NC1CC1)c1ccc(-c2cnc3c(NCc4cccnc4)nc(-c4ccccc4)cn23)cc1 [Example 2-28, N-cyclopropyl-4-{6-phenyl-8-[(pyridin-3-ylmethyl)amino]imidazo[1,2-a]pyrazin-3-yl} benzamide] |
| 5.8 nM | O=C(NC1CC1)c1ccc(-c2cnc3c(NCc4ccc5c(c4)OCO5)nc(-c4ccccc4)cn23)cc1 [Example 2-32, 4-{8-[(1,3-benzodioxol-5-ylmethyl)amino]-6-phenylimidazo[1,2-a]pyrazin-3-yl}-N-cyclopropyl-benzamide] |
